Calls of active or inactive are those of the source.
How the values were obtained:
[1] = molecular target: T1, Oxysterols receptor LXR-beta (Homo sapiens, UniProt P55055); experiment: LXR agonists, Gal4 luciferase reporter, dose response, counter-screen for ssDAF-12 agonist project, cell-based, luminescence, HEK293, S. stercoralis campaign (AID 720737); assay type: functional; details: read-out: IC50 (the source's name)
T1 sequence (P55055 whole entry): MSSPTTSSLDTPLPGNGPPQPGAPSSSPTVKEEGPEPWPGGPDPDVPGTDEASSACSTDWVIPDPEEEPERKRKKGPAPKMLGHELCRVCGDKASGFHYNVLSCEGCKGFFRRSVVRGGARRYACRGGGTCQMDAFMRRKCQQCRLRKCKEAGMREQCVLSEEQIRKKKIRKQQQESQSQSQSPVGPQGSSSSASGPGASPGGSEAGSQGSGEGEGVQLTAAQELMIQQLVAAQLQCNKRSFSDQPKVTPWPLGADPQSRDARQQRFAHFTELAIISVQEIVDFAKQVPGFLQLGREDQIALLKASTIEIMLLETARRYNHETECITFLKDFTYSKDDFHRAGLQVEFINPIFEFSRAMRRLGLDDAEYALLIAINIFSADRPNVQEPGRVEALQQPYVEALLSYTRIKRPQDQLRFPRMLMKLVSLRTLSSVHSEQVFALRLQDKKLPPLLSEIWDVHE

[2] = Luminescence-based cell-based high throughput dose response assay to identify activators of the DAF-12 from the parasite S. stercoralis (ssDAF-12).; assay type: functional
[3] = viability loss in THP-1 monocytes – THP-1 cells, cytotoxicity control for Vif-APOBEC3G degradation inhibitor project, dose response (AID 1117359); assay type: functional; details: THP-1
[4] = NIH3T3 cell viability loss – ATP luminescence, mouse fibroblasts, counter-screen, dose response (AID 2010); assay type: functional, cell-based;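 note: cells exposed to compound for about 90 hours before reading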
[5] = Trypanosoma cruzi growth suppression in host cells – NIH3T3 host cells, beta-gal luminescence, confirmation (AID 2044); assay type: functional, cell-based;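 note: intracellular parasites grown in NIH/3T3 mouse fibroblasts as host cells; luminescent beta-galactosidase reporter signal from transgenic T. cruzi replicating inside host cells; inhibitors lower the luminescence signal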
[6] = Luminescence Cell-Based Dose Response HTS to Identify Inhibitors of 5'UTR Stem-Loop Driven Prion Protein mRNA Translation in H4 Neuroglioblastoma Cells. [Related pubchem assays: 1827 (Project Summary), 1813 (Primary HTS)]; assay type: functional
HT-1080 = experiment: HT1080 cell viability loss – fluorescence readout (AID 620); assay type: functional, cell-based; details: Homo sapiens
[7] = molecular target: Luciferin 4-monooxygenase (Photinus pyralis, UniProt P08659); experiment: Counter Screen for Luciferase-based Assay Positives. [Related pubchem assays: 620, 618, 411 ]
Luciferin 4-monooxygenase, sequence (P08659 whole entry): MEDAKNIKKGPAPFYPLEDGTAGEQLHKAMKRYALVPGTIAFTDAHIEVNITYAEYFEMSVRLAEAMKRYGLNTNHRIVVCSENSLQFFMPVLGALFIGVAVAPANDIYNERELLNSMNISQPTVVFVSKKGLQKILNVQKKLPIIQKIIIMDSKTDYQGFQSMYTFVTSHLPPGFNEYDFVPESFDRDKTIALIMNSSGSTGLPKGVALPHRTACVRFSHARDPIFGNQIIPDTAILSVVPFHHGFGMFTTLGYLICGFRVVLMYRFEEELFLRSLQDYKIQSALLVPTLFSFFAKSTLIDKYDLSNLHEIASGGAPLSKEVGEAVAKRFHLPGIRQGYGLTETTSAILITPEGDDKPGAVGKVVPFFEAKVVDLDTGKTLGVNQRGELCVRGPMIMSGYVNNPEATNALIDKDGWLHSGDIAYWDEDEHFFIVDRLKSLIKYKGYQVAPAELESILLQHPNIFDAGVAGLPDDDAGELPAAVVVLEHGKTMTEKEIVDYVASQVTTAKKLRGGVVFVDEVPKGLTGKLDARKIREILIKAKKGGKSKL

[8] = alpha-synuclein stem-loop luciferase translation blockers – H4 neuroglioma cells, luminescence, confirmation (AID 1988); assay type: functional, cell-based
Prothrombin = Prothrombin (Homo sapiens, UniProt P00734); experiment: Thrombin 1536 HTS Dose Response Confirmation. [Related pubchem assays: 1046 (Thrombin 1536 HTS; hits were confirmed in this assay)]; assay type: functional
Cytochrome P450 3A4 = Cytochrome P450 3A4 (Homo sapiens, UniProt P08684);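 note: CYP3A4 tested as one member of a cytochrome P450 panel screen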
Cytochrome P450 3A4, sequence (P08684 whole entry): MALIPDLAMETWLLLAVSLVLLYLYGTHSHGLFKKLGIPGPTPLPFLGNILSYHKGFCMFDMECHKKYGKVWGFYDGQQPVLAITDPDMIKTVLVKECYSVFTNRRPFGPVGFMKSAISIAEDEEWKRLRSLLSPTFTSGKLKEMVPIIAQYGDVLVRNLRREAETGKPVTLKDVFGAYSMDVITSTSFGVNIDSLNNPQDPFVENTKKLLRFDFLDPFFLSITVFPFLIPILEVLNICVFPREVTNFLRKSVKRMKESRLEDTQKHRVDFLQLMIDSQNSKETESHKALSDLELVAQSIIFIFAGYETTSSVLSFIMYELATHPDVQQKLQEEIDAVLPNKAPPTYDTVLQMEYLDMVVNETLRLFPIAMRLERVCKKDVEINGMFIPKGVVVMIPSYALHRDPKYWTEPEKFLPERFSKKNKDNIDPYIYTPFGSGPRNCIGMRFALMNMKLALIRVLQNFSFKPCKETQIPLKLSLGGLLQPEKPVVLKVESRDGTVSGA

[9] = molecular target: Serine/threonine-protein phosphatase PP1-alpha catalytic subunit (Homo sapiens, UniProt P62136); experiment: inhibition of protein phosphatase 1 activity – biochemical, fluorescence, dose response (AID 2403);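 note: phosphatase turnover of OMFP into fluorescent 3-O-methylfluorescein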
Serine/threonine-protein phosphatase PP1-alpha catalytic subunit, sequence (P62136 whole entry): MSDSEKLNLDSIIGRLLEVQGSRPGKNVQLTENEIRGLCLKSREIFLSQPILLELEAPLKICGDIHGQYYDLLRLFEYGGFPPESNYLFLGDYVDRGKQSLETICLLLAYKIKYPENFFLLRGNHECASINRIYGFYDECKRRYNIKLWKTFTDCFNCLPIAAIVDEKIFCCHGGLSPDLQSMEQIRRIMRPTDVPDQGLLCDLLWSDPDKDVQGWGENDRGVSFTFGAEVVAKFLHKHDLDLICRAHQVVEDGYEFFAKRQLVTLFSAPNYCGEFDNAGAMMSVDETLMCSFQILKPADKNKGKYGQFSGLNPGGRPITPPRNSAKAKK

[10] = molecular target: T2, Serine/threonine-protein phosphatase (Homo sapiens, UniProt Q9BPW0); experiment: Counterscreen for inhibitors of PP1: fluorescence-based biochemical high throughput dose response assay to identify inhibitors of Protein Phosphatase 5 (PP5). [Related pubchem assays: 2034 (Summary (PP5 inhibitors)), 1987 (PP5 inhibitors in singlate), 2235 (PP1 inhibitors in singlate)]
T2 sequence (Q9BPW0 whole entry): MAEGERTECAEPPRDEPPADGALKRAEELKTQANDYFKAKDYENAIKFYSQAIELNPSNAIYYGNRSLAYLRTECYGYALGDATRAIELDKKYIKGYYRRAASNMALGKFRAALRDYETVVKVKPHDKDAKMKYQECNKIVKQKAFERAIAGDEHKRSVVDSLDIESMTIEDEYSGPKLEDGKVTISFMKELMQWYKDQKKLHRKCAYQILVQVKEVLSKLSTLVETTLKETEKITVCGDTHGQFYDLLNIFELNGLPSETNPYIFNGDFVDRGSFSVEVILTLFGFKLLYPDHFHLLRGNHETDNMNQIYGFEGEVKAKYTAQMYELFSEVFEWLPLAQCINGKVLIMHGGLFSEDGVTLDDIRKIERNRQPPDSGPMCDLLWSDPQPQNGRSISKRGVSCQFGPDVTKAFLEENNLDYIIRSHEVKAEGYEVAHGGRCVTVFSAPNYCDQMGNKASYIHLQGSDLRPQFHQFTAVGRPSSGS

[11] = molecular target: T1, Oxysterols receptor LXR-beta; assay type: functional, cell-based
cells [12] = experiment: cells
[13] = molecular target: T1, Oxysterols receptor LXR-beta; assay type: functional, cell-based; remark: listed apart in the source
Estrogen receptor beta = Estrogen receptor beta (Homo sapiens, UniProt Q92731);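 note: recombinant ER-beta bound to coactivator SRC1 peptide in presence of estradiol agonist; inhibitors block coactivator peptide binding and lower the FRET signal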
Estrogen receptor beta, sequence (Q92731 whole entry): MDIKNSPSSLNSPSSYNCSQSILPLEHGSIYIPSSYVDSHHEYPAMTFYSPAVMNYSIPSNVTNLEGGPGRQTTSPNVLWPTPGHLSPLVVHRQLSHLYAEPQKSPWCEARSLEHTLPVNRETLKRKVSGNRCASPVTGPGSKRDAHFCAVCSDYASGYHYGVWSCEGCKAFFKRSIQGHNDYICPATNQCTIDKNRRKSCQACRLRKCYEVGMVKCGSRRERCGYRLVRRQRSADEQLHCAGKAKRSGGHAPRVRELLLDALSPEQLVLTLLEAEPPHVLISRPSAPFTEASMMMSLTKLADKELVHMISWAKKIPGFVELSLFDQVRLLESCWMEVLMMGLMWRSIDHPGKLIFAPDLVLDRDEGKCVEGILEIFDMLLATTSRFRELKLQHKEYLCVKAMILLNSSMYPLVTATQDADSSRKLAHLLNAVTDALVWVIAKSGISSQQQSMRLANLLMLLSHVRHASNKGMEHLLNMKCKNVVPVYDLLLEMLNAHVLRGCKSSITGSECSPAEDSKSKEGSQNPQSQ

cells [14] = experiment: cells; remark: listed apart in the source
[15] = viability of uninfected HEp-2 cells – cell-based, HTS, cytotoxicity control for RSV inhibitor project, dose response (AID 2410); assay type: functional; details: human respiratory syncytial virus

CCOC(=O)N1CCC(/N=c2/c(-c3ccc(C)cc3)c(O)c2=O)CC1
EC50 [1]: > 67.5 µM (inactive)
IC50 [2]: > 67.5 µM (inactive)

CCCCN(CCCC)S(=O)(=O)c1ccc(NC(=O)c2cccs2)cc1
CC50 [3]: 27.9 µM (active)
EC50 [4]: > 60 µM (not active)
EC50 [5]: 1.83 µM (active)

C=CCn1c(C)cc(C(=O)CSc2nc3ccccc3[nH]2)c1C
EC50 [6]: 11.1 µM (active)
EC50 (HT-1080): > 50 µM (not active)
EC50 [7]: < 0.2 µM (active)
EC50 [8]: 9.31 µM (active)

CCOC(=O)CSc1nnc(NC(=O)c2ccccc2)[nH]1
IC50 (Prothrombin): 0.862 µM (active)
AC50 (Cytochrome P450 3A4): 39.8 µM (inconclusive)

COc1cnc(-c2ccccn2)nc1Oc1cccc(Cl)c1
IC50 [9]: 8.46 µM (active)
IC50 [10]: > 67 µM (not active)

Cc1ccc(C(=N)NOC(=O)c2cccs2)cc1
EC50 [11]: > 67.6 µM (inactive)

Cc1cc(OCc2cc(C(=O)NCc3cc(C(C)C)no3)no2)cc(C)c1Cl
EC50 [11]: > 67.5 µM (inactive)

Cn1cc(Cl)c(C(=O)Nc2nc3ccccc3s2)n1
EC50 [1]: > 67.5 µM (inactive)
IC50 [2]: > 67.5 µM (inactive)
EC50 (cells [12]): > 67.5 µM (inactive)
EC50 [13]: > 67.5 µM (inactive)

O=C(Nc1cc(C(F)(F)F)ccc1N1CCOCC1)C1Cc2ccccc2CN1C(=O)c1ccco1 (configuration not stated)
IC50 (Estrogen receptor beta): 5.94 µM (active)

Cc1ccc(C(=O)N/C(=C/c2ccc(C(C)C)cc2)C(=O)NCCCN2CCOCC2)cc1
IC50 (cells [14]): 13.2 µM (active)
CC50 [15]: > 50 µM (active)

Reference: ChEMBL document CHEMBL1201862, “PubChem BioAssay data set” (2004)
